Measurements as given in ChEMBL document CHEMBL4732135, “Structural and mechanistic insights into the inhibition of amyloid-β aggregation by Aβ fragment derived synthetic peptides” (Eur J Med Chem, 2021).
Square brackets hold non-standard residues; d marks the D form. Peptide text beside a SMILES is read from it. Gly(cPent) = N[C@H](C(=O)O)C1CCCC1; Ala(cPr) = N[C@@H](CC1CC1)C(=O)O; NMeL = CN[C@@H](CC(C)C)C(=O)O; NMeNva = CCC[C@H](NC)C(=O)O; Abu = CC[C@H](N)C(=O)O; βAla = NCCC(=O)O

How the values were obtained:
PC-12 [1] = assay: Neuroprotective activity against amyloid beta 42-induced toxicity in rat PC-12 cells assessed as cell viability at 2 uM measured after 6 hrs by MTT assay (reference value: 74.05%); assay type: functional; conditions: read-out: Activity
[2] = biological target: Amyloid-beta precursor protein (Homo sapiens) (UniProt P05067); assay: Inhibition of amyloid beta (1 to 42) (unknown origin) assessed as reduction in peptide aggregation at 10 uM measured after 24 hrs by thioflavin-T fluorescence assay relative to control
[3] = biological target: Amyloid-beta precursor protein (Homo sapiens) (UniProt P05067); assay: Inhibition of amyloid beta (1 to 42) (unknown origin) assessed as reduction in peptide aggregation at 2 uM measured after 24 hrs by thioflavin-T fluorescence assay relative to control
[4] = biological target: Amyloid-beta precursor protein (Homo sapiens) (UniProt P05067); assay: Inhibition of amyloid beta (1 to 42) (unknown origin) assessed as reduction in peptide aggregation at 4 uM measured after 24 hrs by thioflavin-T fluorescence assay relative to control
PC-12 [5] = assay: Neuroprotective activity against amyloid beta 42-induced toxicity in rat PC-12 cells assessed as cell viability at 10 uM measured after 6 hrs by MTT assay (reference value: 74.05%); assay type: functional; conditions: read-out: Activity
PC-12 [6] = assay: Neuroprotective activity against amyloid beta 42-induced toxicity in rat PC-12 cells assessed as cell viability at 4 uM measured after 6 hrs by MTT assay (reference value: 74.05%); assay type: functional; conditions: read-out: Activity

Amyloid-beta precursor protein (Homo sapiens), sequence (P05067 whole entry): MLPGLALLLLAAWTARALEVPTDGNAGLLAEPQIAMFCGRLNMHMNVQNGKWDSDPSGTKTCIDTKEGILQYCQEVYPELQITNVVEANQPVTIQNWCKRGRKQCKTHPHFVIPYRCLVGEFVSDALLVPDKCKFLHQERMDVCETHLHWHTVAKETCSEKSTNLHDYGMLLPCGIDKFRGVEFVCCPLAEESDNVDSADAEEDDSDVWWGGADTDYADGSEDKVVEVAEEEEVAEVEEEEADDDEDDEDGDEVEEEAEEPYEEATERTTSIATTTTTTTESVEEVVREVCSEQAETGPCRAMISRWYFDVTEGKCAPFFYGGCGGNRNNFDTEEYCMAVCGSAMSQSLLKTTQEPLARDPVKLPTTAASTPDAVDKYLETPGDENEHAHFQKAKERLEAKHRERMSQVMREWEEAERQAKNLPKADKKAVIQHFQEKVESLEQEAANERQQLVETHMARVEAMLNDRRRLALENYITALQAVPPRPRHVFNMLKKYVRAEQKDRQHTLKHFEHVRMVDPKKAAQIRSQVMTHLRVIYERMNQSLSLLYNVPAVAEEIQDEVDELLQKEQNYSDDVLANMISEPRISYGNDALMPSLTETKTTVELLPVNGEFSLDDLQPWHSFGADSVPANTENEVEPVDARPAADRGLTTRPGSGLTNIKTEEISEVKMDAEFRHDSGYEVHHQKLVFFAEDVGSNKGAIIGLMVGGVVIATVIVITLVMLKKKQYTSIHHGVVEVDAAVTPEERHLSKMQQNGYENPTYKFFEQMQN

inhibition [2] | inhibition [3] | inhibition [4] | Compound | viability at 2 µM (PC-12 [1]) | viability at 10 µM (PC-12 [5]) | viability at 4 µM (PC-12 [6])
71.5% | 38.6% | 59.9% | CC[C@H](C)[C@H](NC(=O)[C@@H](NC(=O)[C@@H](N)C(C)C)C(C)C)C(=O)N[C@@H](CC(N)=O)C(=O)O (H-VVIN-OH) | 93.6% | 69.2% | 67.4%
32.5% | 2.8% | 2% | CC[C@H](NC(=O)[C@@H](NC(=O)[C@@H](NC(=O)[C@@H](N)C(C)C)C(C)C)[C@@H](C)CC)C(=O)O (H-VVI[Abu]-OH) | 77.9% | 65.6% | 73.4%
13% | 0% | 0% | CC[C@H](C)[C@H](NC(=O)[C@@H](NC(=O)[C@@H](N)C(C)C)C(C)C)C(=O)NCCC(=O)O (H-VVI[βAla]-OH) | 97.8% | 87.3% | 93.1%
4.4% | 0% | 0% | CC[C@H](NC(=O)[C@@H](NC(=O)[C@@H](N)C(C)C)C(C)C)C(=O)N[C@@H](C)C(=O)O (H-VV[Abu]A-OH) | 89.1% | 89.2% | 94.9%
0% | 0% | 0% | CC(C)[C@H](N)C(=O)N[C@H](C(=O)N[C@@H](CC1CC1)C(=O)N[C@@H](C)C(=O)O)C(C)C (H-VV[Ala(cPr)]A-OH) | 68.4% | 65.9% | 77%
47.8% | 17.1% | 40.3% | CC(C)[C@H](N)C(=O)N[C@H](C(=O)N[C@H](C(=O)N[C@@H](C)C(=O)O)C1CCCC1)C(C)C (H-VV[Gly(cPent)]A-OH) | 85.6% | 84.2% | 91.9%
61% | 31.6% | 44.1% | CC(C)C[C@@H](C(=O)N[C@@H](C)C(=O)O)N(C)C(=O)[C@@H](NC(=O)[C@@H](N)C(C)C)C(C)C (H-VV[NMeL]A-OH) | 96.3% | 84.8% | 87.2%
40.8% | 22.2% | 34.9% | CCC[C@@H](C(=O)N[C@@H](C)C(=O)O)N(C)C(=O)[C@@H](NC(=O)[C@@H](N)C(C)C)C(C)C (H-VV[NMeNva]A-OH) | 87.3% | 82.1% | 83.7%

Second part, the compound before the results:

Compound | inhibition [2] | inhibition [3] | inhibition [4] | viability at 2 µM (PC-12 [1]) | viability at 10 µM (PC-12 [5]) | viability at 4 µM (PC-12 [6])
CC(C)[C@H](N)C(=O)N[C@H](C(=O)NC[C@@H]1CCCN1[C@@H](C)C(=O)O)C(C)C | 11.9% | 0% | 0% | 72% | 58.8% | 64.7%
CC[C@H](C)[C@H](NC(=O)[C@@H](NC(=O)C[C@H](N)c1ccccc1)C(C)C)C(=O)N[C@@H](C)C(=O)O | 67.3% | 50.1% | 58.2% | 69.1% | 58.8% | 66.3%
CC[C@H](C)[C@H](NC(=O)CNC(=O)CN)C(=O)N[C@@H](C)C(=O)O (H-GGIA-OH) | 98.3% | 93.6% | 95.2% | 100% | 66.8% | 72.8%
CC[C@H](C)[C@H](NC(=O)[C@@H](NC(=O)[C@@H](N)C(C)C)C(C)C)C(=O)N[C@@H](CCC(=O)O)C(=O)O (H-VVIE-OH) | 65.1% | 38.8% | 39.3% | 68.9% | 84.9% | 76.3%
CC[C@H](C)[C@H](NC(=O)[C@@H](NC(=O)[C@@H](N)C(C)C)C(C)C)C(=O)N[C@@H](CCC(N)=O)C(=O)O (H-VVIQ-OH) | 23.4% | 24.2% | 26.5% | 76.9% | 74.6% | 75.2%
